Source: patent US20260285834A1, “SUBSTITUTED PYRIDINE DERIVATIVES AS SARM1 INHIBITORS” (Nura Bio, Inc., priority 2022, published 2026)

Each compound was assayed against T1, human SARM1(50-724) (Homo sapiens, UniProt Q6SZW1) (assay: SARM1 biological assay: HPLC measurement of NAD and NAM peak areas). Conditions: not given.
T1 construct: 40 nM human SARM1(50-724)
T1 sequence (Q6SZW1 50-724): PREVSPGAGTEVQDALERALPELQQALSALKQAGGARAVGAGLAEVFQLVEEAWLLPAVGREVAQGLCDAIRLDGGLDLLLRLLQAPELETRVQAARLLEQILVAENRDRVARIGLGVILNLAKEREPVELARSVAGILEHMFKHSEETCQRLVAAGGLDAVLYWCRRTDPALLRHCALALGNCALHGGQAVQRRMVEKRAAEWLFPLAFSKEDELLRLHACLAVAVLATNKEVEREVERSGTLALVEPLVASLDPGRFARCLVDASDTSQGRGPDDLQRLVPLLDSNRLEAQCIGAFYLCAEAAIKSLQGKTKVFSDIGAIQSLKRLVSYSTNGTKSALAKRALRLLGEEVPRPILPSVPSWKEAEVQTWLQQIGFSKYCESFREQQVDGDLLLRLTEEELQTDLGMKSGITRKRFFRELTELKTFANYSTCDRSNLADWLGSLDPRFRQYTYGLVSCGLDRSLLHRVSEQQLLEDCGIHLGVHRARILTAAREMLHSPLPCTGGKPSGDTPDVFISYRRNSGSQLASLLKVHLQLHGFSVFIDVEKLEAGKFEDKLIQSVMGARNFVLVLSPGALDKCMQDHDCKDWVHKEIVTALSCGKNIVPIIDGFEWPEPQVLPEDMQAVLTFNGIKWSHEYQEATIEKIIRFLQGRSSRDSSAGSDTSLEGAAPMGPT
Assay type: biochemical
Procedure: Each reaction was run at a volume of 20 μL containing 50 μM compound (dissolved in DMSO; final concentration of DMSO is 1% v/v), 40 nM human SARM1(50-724), 0.3 mM NMN, 20 μM NAD, 1 mM TCEP, 25 mM HEPES pH 7.4, 10 mM KCl and 10 mM MgCl2. The reaction was incubated at room temperature for 60 minutes and quenched with 20 μL of 0.4% formic acid. The samples were run on Agilent HPLC 1260 Infinity II with Synergi 2.5 μM Fusion-RP 100 Å (100×3.0 mm) LC column from Phenomenex. Total run time for each sample was 4 minutes. The run was isocratic with 1.5% methanol in 40 mM ammonium acetate pH 6.0. Samples were run at a flow rate of 0.8 mL/min at 55° C. Peak areas of NAD and NAM were determined using OpenLAB CDS (Chem Station edition) software. For dose-response, the compound was diluted serially 1:3 in DMSO and added to the reaction starting at a final compound concentration of 100 μM in 1% DMSO.

Row | Compound | IC50
1 | FC1(F)CNC(c2nc(Cc3ccncc3)c[nH]2)C1 (stereo not drawn) [Example 32, 4-((2-(4,4-Difluoropyrrolidin-2-yl)-1H-imidazol-4-yl)methyl)pyridine] | 1000 to 10000 nM
2 | ClC1CC(c2nc(Cc3ccncc3)c[nH]2)C1 (stereo not drawn) [Example 34, 4-((2-(3-Chlorocyclobutyl)-1H-imidazol-4-yl)methyl)pyridine] | < 1000 nM
3 | N#CC1CC(c2nc(Cc3ccncc3)c[nH]2)C1 [Example 35B, (trans)-(1S, 3S)-3-(4-Pyridin-4ylmethyl)-1H-imidazol-2-yl)cyclobutane-1-carbonitrile] | < 1000 nM
4 | FC(F)(F)O[C@H]1C[C@@H](c2nc(Cc3ccncc3)c[nH]2)C1 [Example 37A, (cis)-4-((2-(3-(Trifluoromethoxy)cyclobutyl)-1H-imidazole-4-yl)methyl)pyridine] | < 1000 nM
5 | FC(F)(F)O[C@H]1C[C@H](c2nc(Cc3ccncc3)c[nH]2)C1 [Example 37B, (trans)-4-((2-(3-(Trifluoromethoxy)cyclobutyl)-1H-imidazole-4-yl)methyl)pyridine] | 1000 to 10000 nM
6 | FC1(Cl)CC1c1nc(Cc2ccncc2)c[nH]1 (stereo not drawn) [Example 39, 4-((2-(2-Chloro-2-fluorocyclopropyl)-1H-imidazol-4-yl)methyl)pyridine] | < 1000 nM
7 | FC1(F)CC1(F)c1nc(Cc2ccncc2)c[nH]1 (stereo not drawn) [Example 40, 4-((2-(1,2,2-Trifluorocyclopropyl)-1H-imidazol-4-yl)methyl)pyridine] | < 1000 nM

Same assay, conditions: 40 nM human SARM1(50-724), 0.3 mM NMN, 20 μM NAD, 60 min at room temperature; dose-response 1:3 serial dilution from 100 μM; read-out: Average IC50

Row | Compound | IC50
8 | N#C[C@H]1C[C@@H](c2nc(Cc3ccncc3)c[nH]2)C1 [Example 35A] | 1000 to 10000 nM
9 | N#CC1(F)CC(c2nc(Cc3ccncc3)c[nH]2)C1 (stereo not drawn) [Example 38A] | 1000 to 10000 nM
